The target of test [1] is recombinant human Myt1 (full length PKMYT1) (Homo sapiens (Human), UniProt Q99640). As to the kind of experiment: Recombinant human Myt1 kinase assay (ADP-Glo). The test is classed as biochemical. The note with it: 10 μM ATP. In short, it runs like this: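 ADP-Glo luminescence measured ATP hydrolysis by recombinant full-length PKMYT1 (18 nM) after 60 min at 30 °C with 10 μM ATP. Compounds in 0.5% DMSO were added to the enzyme 15 min before ATP, at 22 °C, in HEPES/MgCl2/MnCl2 buffer. IC50 and percent maximal inhibition were derived.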

The subject of test [2] is PKMYT1 (CDK1 pThr14) in FUOV1 cells. The test can be described thus: PKMYT1 cell-based activity assay, CDK1 pThr14 AlphaLISA in FUOV1 cells. The note with it: 2 h, 2 h compound incubation, read-out: FUOV-1 CDK1 pThr14 IC50. A digest of the protocol:
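IC50 was derived from AlphaLISA signal (excitation 680 nm, emission 615 nm) for phospho-Thr14 CDK1 in lysates. The detection antibodies were rabbit anti-pThr14 and mouse anti-total CDK1, each at 5 nM. FUOV1 ovarian cells were exposed to compound for 2 hours before lysis.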

The structures appear in SMILES notation.

We go through 48 compounds from patent US20250304537A1 (Repare Therapeutics Inc., priority 2022, published 2025).

Chain of recombinant human Myt1 (full length PKMYT1) (Q99640 whole entry): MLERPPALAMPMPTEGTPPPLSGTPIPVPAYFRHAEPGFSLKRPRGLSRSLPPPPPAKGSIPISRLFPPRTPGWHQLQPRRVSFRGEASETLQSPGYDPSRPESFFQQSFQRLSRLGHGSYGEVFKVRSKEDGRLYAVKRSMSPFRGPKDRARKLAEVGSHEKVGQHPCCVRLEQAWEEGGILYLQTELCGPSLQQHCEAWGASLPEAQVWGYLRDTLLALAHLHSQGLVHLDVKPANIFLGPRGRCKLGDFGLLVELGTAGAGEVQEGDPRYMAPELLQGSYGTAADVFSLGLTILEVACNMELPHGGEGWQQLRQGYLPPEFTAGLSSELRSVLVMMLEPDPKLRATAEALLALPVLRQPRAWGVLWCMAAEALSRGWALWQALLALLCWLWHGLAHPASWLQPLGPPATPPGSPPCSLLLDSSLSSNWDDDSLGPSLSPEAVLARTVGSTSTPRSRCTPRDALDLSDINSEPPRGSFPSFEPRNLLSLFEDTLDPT

Turning to `Cc1ccc2[nH]ncc2c1-c1nc(-c2cc(F)c(F)cc2NC(=O)C2(C(F)(F)F)CCC2)nc(C(N)=O)c1N` [Compound 470], the IC50 in test [1] turned out to be 18 nM; in test [2], 1230 nM.
As for `Cc1ccc2[nH]ncc2c1-c1nc(-c2cc(F)c(F)cc2NC(=O)C2(C(F)(F)F)CC2)nc(C(N)=O)c1N` [Compound 471], the IC50 in test [1] worked out at 16 nM; in test [2] it was 261 nM.
For `Cc1ccc2[nH]ncc2c1-c1nc(-c2cc(F)ccc2Nc2ncccn2)nc(C(N)=O)c1N` [Compound 472], in that order: 6 nM and 26 nM.
Consider `CCOC(=O)Nc1ccccc1-c1nc(C(N)=O)c(N)c(-c2c(C)ccc3[nH]ncc23)n1` [Compound 473], for which the IC50 in test [1] was found to be 8 nM; in test [2], 48 nM.
The matching figures for `Cc1ccc2[nH]ncc2c1-c1nc(-c2ccccc2NC(=O)OC(C)(C)C)nc(C(N)=O)c1N` [Compound 474]: 16 nM and 398 nM.
For `Cc1ccc2[nH]ncc2c1-c1nc(-c2cc(F)c(F)cc2NC2CC(F)(F)C2)nc(C(N)=O)c1N` [Compound 475], in that order: 14 nM and 138 nM.
For the compound `Cc1ccc2[nH]ncc2c1-c1nc(-c2ccccc2NC2CC2)nc(C(N)=O)c1N` [Compound 476], the IC50 was found to be 3 nM in test [1] and 25 nM in test [2].
The matching figures for `Cc1ccc2[nH]ncc2c1-c1nc(-c2cc(F)c(F)cc2NC(=O)C2(C#N)CC2)nc(C(N)=O)c1N` [Compound 477]: 3 nM and 26 nM.
For `Cc1ccc2[nH]ncc2c1-c1nc(-c2ccccc2NC(=O)C2(C3CC3)CC2)nc(C(N)=O)c1N` [Compound 478], the IC50 in test [1] came out at 6 nM; in test [2], 80 nM.
The matching figures for `Cc1ccc2[nH]ncc2c1-c1nc(-c2cc(F)c(F)cc2NS(=O)(=O)C2CC2)nc(C(N)=O)c1N` [Compound 480]: 5 nM and 158 nM.
The matching figures for `Cc1ccc2[nH]ncc2c1-c1nc(-c2cc(F)ccc2NS(=O)(=O)C2CC2)nc(C(N)=O)c1N` [Compound 481]: 2 nM and 83 nM.
With `Cc1ccc2[nH]ncc2c1-c1nc(-c2cc(F)ccc2NS(=O)(=O)C2(C)CC2)nc(C(N)=O)c1N` [Compound 482], the half-maximal inhibitory concentration (IC50) in test [1] amounted to 5 nM; in test [2], 114 nM.
The matching figures for `Cc1ccc2[nH]ncc2c1-c1nc(-c2ccncc2NC(=O)C(C)(C)C)nc(C(N)=O)c1N` [Compound 483, 5-amino-6-(5-methyl-1H-indazol-4-yl)-2-(3-pivalamidopyridin-4-yl)pyrimidine-4-carboxamide]: 2 nM and 2 nM.
For `Cc1ccc2[nH]ncc2c1-c1nc(-c2cc(F)c(F)cc2NC(=O)C2(C)CCN(C)C2)nc(C(N)=O)c1N` (stereo not drawn) [Compound 484], in that order: 7 nM and 23 nM.
For `Cc1ccc2[nH]ncc2c1-c1nc(-c2cc(F)c(F)cc2NC2CCN(C)CC2)nc(C(N)=O)c1N` [Compound 485], in that order: 7 nM and 53 nM.
Consider `Cc1ccc2[nH]ncc2c1-c1cc(C(N)=O)nc(-c2cccnc2Nc2nc(F)ccc2F)n1` [Compound 499, 2-(2-((3,6-difluoropyridin-2-yl)amino)pyridin-3-yl)-6-(5-methyl-1H-indazol-4-yl)pyrimidine-4-carboxamide], for which the IC50 in test [1] is 4 nM; in test [2], 209 nM.
The matching figures for `Cc1nccc(Nc2cc(F)ccc2-c2nc(C(N)=O)c(N)c(-c3c(C)ccc4[nH]ncc34)n2)n1` [Compound 525]: 5 nM and 19 nM.
The matching figures for `Cc1ccncc1Nc1ncccc1-c1nc(C(N)=O)c(N)c(-c2c(C)ccc3[nH]ncc23)n1` [Compound 599]: 363 nM and 630 nM.
Take `Cc1ccc2[nH]ncc2c1-c1nc(-c2cccnc2Nc2cccc(F)c2)nc(C(N)=O)c1N` [Compound 600]: the IC50 in test [1] was 10 nM; in test [2], 885 nM.
The matching figures for `Cc1ccc2[nH]ncc2c1-c1nc(-c2cccnc2NC[C@H]2CCCO2)nc(C(N)=O)c1N` [Compound 601]: 3 nM and 467 nM.
As for `Cc1ccc2[nH]ncc2c1-c1nc(-c2cccnc2NC[C@@H]2CCOC2)nc(C(N)=O)c1N` [Compound 602], the results for the IC50 in test [1] and in test [2] were 4 nM and 29 nM, respectively.
The matching figures for `Cc1ccc2[nH]ncc2c1-c1nc(-c2cccnc2N[C@@H]2CCO[C@H](C)C2)nc(C(N)=O)c1N` [Compound 603]: 4 nM and 25 nM.
For `Cc1ccc2[nH]ncc2c1-c1nc(-c2cccnc2NCC2CCCCO2)nc(C(N)=O)c1N` (stereo not drawn) [Compound 604], in that order: 16 nM and 794 nM.
In the case of `Cc1ccc2[nH]ncc2c1-c1nc(-c2cccnc2N[C@@H]2CCO[C@@H](C)C2)nc(C(N)=O)c1N` [Compound 605], the IC50 in test [1] amounted to 4 nM; in test [2], 283 nM.
For `Cc1ccc2[nH]ncc2c1-c1nc(-c2cccnc2NC2CCOCC2C)nc(C(N)=O)c1N` (stereo not drawn) [Compound 606], in that order: 2 nM and 67 nM.
As to `Cc1ccc2[nH]ncc2c1-c1nc(-c2cccnc2Nc2ccccc2)nc(C(N)=O)c1N` [Compound 607], the IC50 was 6 nM in test [1] and 319 nM in test [2].
The matching figures for `Cc1ccc2[nH]ncc2c1-c1nc(-c2cccnc2Nc2cccc(C(F)(F)F)c2)nc(C(N)=O)c1N` [Compound 608]: 29 nM and 1390 nM.
The matching figures for `Cc1ccc2[nH]ncc2c1-c1nc(-c2cccnc2Nc2cccc(C(N)=O)c2)nc(C(N)=O)c1N` [Compound 609]: 4 nM and 414 nM.
The matching figures for `Cc1ccc2[nH]ncc2c1-c1nc(-c2cccnc2Nc2ccccc2F)nc(C(N)=O)c1N` [Compound 610]: 10 nM and 397 nM.
Take `Cc1ccc2[nH]ncc2c1-c1nc(-c2ccc(F)cc2Nc2ncccc2Cl)nc(C(N)=O)c1N` [Compound 611]: the IC50 was found to be 21 nM in test [1] and 22 nM in test [2].
The matching figures for `Cc1ccc2[nH]ncc2c1-c1nc(-c2ccc(F)cc2Nc2cc(C#N)ccn2)nc(C(N)=O)c1N` [Compound 612]: 12 nM and 214 nM.
The matching figures for `Cc1ccc2[nH]ncc2c1-c1nc(-c2ccc(F)cc2Nc2ncccc2C#N)nc(C(N)=O)c1N` [Compound 613]: 4 nM and 6 nM.
In the case of `COc1cccnc1Nc1cc(F)ccc1-c1nc(C(N)=O)c(N)c(-c2c(C)ccc3[nH]ncc23)n1` [Compound 614], the IC50 in test [1] was determined as 10 nM; in test [2], 37 nM.
In the case of `Cc1ccc2[nH]ncc2c1-c1nc(-c2ccc(F)cc2Nc2cc(C3CC3)ncn2)nc(C(N)=O)c1N` [Compound 615], the figures for the IC50 in test [1] and in test [2] were 16 nM and 515 nM, respectively.
For `Cc1ccnc(Nc2cc(F)ccc2-c2nc(C(N)=O)c(N)c(-c3c(C)ccc4[nH]ncc34)n2)c1` [Compound 616], in that order: 11 nM and 192 nM.
The matching figures for `Cc1cncnc1Nc1cc(F)ccc1-c1nc(C(N)=O)c(N)c(-c2c(C)ccc3[nH]ncc23)n1` [Compound 617]: 4 nM and 7 nM.
The matching figures for `Cc1ncc(C#N)c(Nc2cc(F)ccc2-c2nc(C(N)=O)c(N)c(-c3c(C)ccc4[nH]ncc34)n2)n1` [Compound 618]: 3 nM and 5 nM.
As for `Cc1ccc2[nH]ncc2c1-c1nc(-c2ccc(F)cc2Nc2ccnc(C(C)C)c2)nc(C(N)=O)c1N` [Compound 619], the IC50 in test [1] came out at 6 nM; in test [2], 277 nM.
The matching figures for `Cc1ccc2[nH]ncc2c1-c1nc(-c2ccc(F)cc2Nc2ccnc(C#N)c2)nc(C(N)=O)c1N` [Compound 620]: 3 nM and 41 nM.
Take `Cc1ccc2[nH]ncc2c1-c1nc(-c2cccnc2Nc2ncccc2F)nc(C(N)=O)c1N` [Compound 621]: the IC50 in test [1] and in test [2] was 3 nM throughout.
As to `Cc1cccnc1Nc1ncccc1-c1nc(C(N)=O)c(N)c(-c2c(C)ccc3[nH]ncc23)n1` [Compound 622], the values for the IC50 in test [1] and in test [2] were 4 nM and 10 nM, respectively.
For `Cc1ccc2[nH]ncc2c1-c1nc(-c2cccnc2Nc2cccnc2C)nc(C(N)=O)c1N` [Compound 623], in that order: 4 nM and 179 nM.
With `Cc1cc(Nc2cc(F)ccc2-c2nc(C(N)=O)c(N)c(-c3c(C)ccc4[nH]ncc34)n2)cc(C)n1` [Compound 624], the IC50 came to 8 nM in test [1] and 489 nM in test [2].
For `Cc1ccc2[nH]ncc2c1-c1nc(-c2cccnc2NCC(F)F)nc(C(N)=O)c1N` [Compound 625], in that order: 5 nM and 42 nM.
For `Cc1cccc(Nc2ncccc2-c2nc(C(N)=O)c(N)c(-c3c(C)ccc4[nH]ncc34)n2)n1` [Compound 626], in that order: 5 nM and 530 nM.
Take `Cc1ccc(-c2nc(C(N)=O)c(N)c(-c3c(C)ccc4[nH]ncc34)n2)c(Nc2nccnc2C)n1` [Compound 658]: the IC50 in test [1] turned out to be 5 nM; in test [2], 8 nM.
For `Cc1nccc(Nc2cc(C#N)ccc2-c2nc(C(N)=O)c(N)c(-c3c(C)ccc4[nH]ncc34)n2)n1` [Compound 766], in that order: 3 nM and 41 nM.
For `Cc1ccc2[nH]ncc2c1-c1nc(-c2ccccc2C(C)O)nc(C(N)=O)c1N` (stereo not drawn) [Compound 787], in that order: 4 nM and 278 nM.
